Key:
[1] = system: Varroa jacobsoni (Varroa mites); test: Efficacy against Varroa jacobsoni on topically treated honeybees (Example 1, hives 70% infested): parasite mortality; type: in vivo; conditions: 120 h, 5 days at 31°C, read-out: % Mortality Parasites
Protocol: (§1) In this evaluation, honeybees (Apis mellifera) taken from hives which are 70% infested with Varroa jacobsoni (Varroa mites) are chilled to immobilize the bees. A 1µl droplet of an acetone solution of test compound is applied to the dorsal abdomen of each bee. Control bees receive a 1µl droplet of acetone. A total of 50-52 bees are treated for each dose rate tested. Treatment dose rates are based upon the LD50 (dose rate required to obtain 50% mortality of healthy uninfected bees) of each test compound and are set at 10% of the LD50 and subsequent 10-fold dilutions thereof. The treated bees are placed in an incubator at 31°C in the dark and fed 50% sugar water ad libitum for 5 days. After incubation, the bees are examined for mortality and mite infestation.

[2] = system: honeybees (Apis mellifera); test: Mortality of the topically treated host honeybees (Example 1); type: in vivo; conditions: 5 days at 31°C
Protocol: as §1

Varroa jacobsoni = test: Efficacy against Varroa jacobsoni on topically treated honeybees (Example 2, bees 90% infected): mite mortality; type: in vivo; conditions: 120 h, read-out: % Mortality Mites
Protocol: as §1
(§2) Using essentially the same procedure described in Example 1, but employing honeybees which are 90% infected with Varroa jacobsoni, the following results are obtained and shown in Table II below.

honeybees = test: Mortality of the topically treated host honeybees (Example 2); type: in vivo, Apis mellifera; conditions: bees 90% infected
Protocol: as §1, §2

[3] = 0.002 µg/bee topical in acetone

Structure (SMILES): Fc1ccc(Oc2cc(Oc3ccc(F)c(C(F)(F)F)c3)ncn2)cc1C(F)(F)F [B]
- mortality at 0.002 µg/bee [1, 3]: 6%
- mortality at 0.02 µg/bee ([1]; 0.02 µg/bee topical in acetone): 36%
- mortality at 0.2 µg/bee ([1]; 0.2 µg/bee topical in acetone): 88%
- % Mortality Bees [2, 3]: 16%
- % Mortality Bees ([2]; 0.02 µg/bee topical in acetone): 14%
- % Mortality Bees ([2]; 0.2 µg/bee topical in acetone): 10%

Structure (SMILES): CN(c1ccc(F)c(C(F)(F)F)c1)c1cc(Oc2ccc(F)c(C(F)(F)F)c2)ncn1 [A]
- mortality at 0.08 µg/bee ([1]; 0.08 µg/bee topical in acetone): 75%
- mortality at 0.8 µg/bee ([1]; 0.8 µg/bee topical in acetone): 100%
- mortality at 8 µg/bee ([1]; 8:0 µg/bee topical in acetone): 92%
- % Mortality Bees ([2]; 0.08 µg/bee topical in acetone): 21%
- % Mortality Bees ([2]; 0.8 µg/bee topical in acetone): 13%
- % Mortality Bees ([2]; 8:0 µg/bee topical in acetone): 21%

Structure (SMILES): CN(c1ccc(F)c(C(F)(F)F)c1)c1cc(Oc2ccc(F)c(C(F)(F)F)c2)ncn1 [C]
- mortality at 0.01 µg/bee (Varroa jacobsoni; 0.01 µg/bee topical): 8%
- mortality at 0.1 µg/bee (Varroa jacobsoni; 0.10 µg/bee topical): 80%
- mortality at 1 µg/bee (Varroa jacobsoni; 1.00 µg/bee topical): 91%
- % Mortality Bees (honeybees; 0.01 µg/bee topical): 13%
- % Mortality Bees (honeybees; 0.10 µg/bee topical): 12%
- % Mortality Bees (honeybees; 1.00 µg/bee topical): 16%

From patent EP0972447B1, “Parasitic and saprophagous mite control on beneficial insects” (BASF AKTIENGESELLSCHAFT, priority 1998, dated 2000)
